Laboratory results as given in patent US9687479B2, “Multisubstituted aromatic compounds as serine protease inhibitors” (VERSEON CORPORATION, priority 2013, dated 2017).

Target: Human KLKB1 (Homo sapiens (Human), UniProt P03952)
Test: KLKB1 kallikrein activity inhibition assay (chromogenic substrate S-2302)
Assay type: biochemical
Procedure: The KLKB1 kallikrein activity reported herein (e.g., Tables B, C, and D) was obtained as follows. Human KLKB1 protein was obtained from Enzyme Research Labs. […] KLKB1 was assayed in buffer containing 0.05 M Tris (pH 7.4), 0.01 M NaCl and 0.2% w/v PEG-8000. The final concentration of enzyme used was 3 nM KLKB1. […] All assays were performed in 96-well microtiter plates at room temperature (RT). […] Inhibitor IC50 values were determined by adding test compound as ten point, three-fold serial dilutions in buffer solution, as known in the art. The plate was read at 10 minutes after substrate addition. The IC50 was calculated by plotting the percent (%) inhibition against compound concentration and fitting the data to a constrained four parameter sigmoidal curve, as known in the art.

[1] = 3 nM KLKB1, 250 μM S-2302, 10 min pre-incubation, RT

Human KLKB1, sequence (P03952 391-638 limits assumed): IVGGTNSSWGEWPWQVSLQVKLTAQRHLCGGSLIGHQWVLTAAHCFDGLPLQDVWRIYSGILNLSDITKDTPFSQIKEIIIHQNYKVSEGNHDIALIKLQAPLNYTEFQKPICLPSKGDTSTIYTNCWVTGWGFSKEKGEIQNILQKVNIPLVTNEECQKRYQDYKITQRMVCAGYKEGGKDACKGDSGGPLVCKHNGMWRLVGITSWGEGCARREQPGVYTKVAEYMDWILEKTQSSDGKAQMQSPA
Human KLKB1, sequence (P03952 20-390 partner limits assumed): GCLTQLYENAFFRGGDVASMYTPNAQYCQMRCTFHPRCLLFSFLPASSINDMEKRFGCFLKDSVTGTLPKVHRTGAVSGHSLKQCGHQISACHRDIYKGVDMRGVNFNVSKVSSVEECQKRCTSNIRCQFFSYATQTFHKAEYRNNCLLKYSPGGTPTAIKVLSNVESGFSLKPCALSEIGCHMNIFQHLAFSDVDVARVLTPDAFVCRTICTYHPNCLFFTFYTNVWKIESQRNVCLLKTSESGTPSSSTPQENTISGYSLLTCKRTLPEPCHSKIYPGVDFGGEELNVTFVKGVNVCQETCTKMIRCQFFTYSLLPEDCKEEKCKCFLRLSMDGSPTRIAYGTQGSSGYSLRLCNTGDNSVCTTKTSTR

Row | IC50 (Table C) | SMILES | further results
1 | 1 to 10 µM | O=C(c1cccs1)n1nc(-c2ccccn2)nc1NCc1ccccc1 [Cmpd 404] | 
2 | 1 to 10 µM | O=C(Cc1ccccc1)n1nc(-c2ccccn2)nc1NCc1ccc(F)cc1 [Cmpd 303] | 
3 | > 100 µM | COc1ccc(CNc2nc(-c3cccnc3)nn2C(=O)c2cccs2)cc1 [Cmpd 381] | 
4 | 0.1 to 1 µM | COc1ccccc1C(=O)n1nc(-c2cncnc2)nc1NCc1ccccc1 [Cmpd 17] | 
5 | 0.1 to 1 µM | COc1ccccc1C(=O)n1nc(C2CCCO2)nc1NCc1ccc(Cl)s1 (centres unmarked) [Cmpd 386] | 
6 | 1 to 10 µM | COc1ccccc1C(=O)n1nc(-c2ccccn2)nc1NCc1ccc(F)cc1 [Cmpd 367] | 
7 | 10 to 100 µM | O=C(c1ccsc1)n1nc(-c2ccccn2)nc1NCc1ccccc1 [Cmpd 405] | 
8 | 10 to 100 µM | CCC(=O)n1nc(-c2ccccn2)nc1NCc1ccc(F)cc1 [Cmpd 307] | 
9 | 10 to 100 µM | COc1ccc(CNc2nc(-c3ccccn3)nn2C(=O)c2ccoc2)cc1 [Cmpd 338] | 
10 | 10 to 100 µM | CCC(=O)n1nc(-c2ccccn2)nc1NCc1ccc(OC)cc1 [Cmpd 325] | 
11 | 0.1 to 1 µM | O=C(c1ccccc1)n1nc(-c2ccncc2)nc1NCc1ccccc1 [Cmpd 363] | 
12 | 1 to 10 µM | O=C(c1ccco1)n1nc(-c2ccccn2)nc1NCc1ccc(F)cc1 [Cmpd 369] | 

Continued, molecule first:

Row | SMILES | IC50 (Table C) | further results
13 | CCCn1nc(-c2ccccn2)nc1NCc1ccc(F)cc1 [Cmpd 374] | > 100 µM | 
14 | CC(C)(C)OC(=O)N1CCC(c2cc(NCc3ccc(Cl)s3)n(C(=O)C(C)(C)C)n2)CC1 [Cmpd 297] |  | IC50 (Table B): > 100 µM
15 | CC(C)(C)OC(=O)n1nc(-c2cccnc2)nc1NCc1ccc(F)cc1 [Cmpd 413] | > 100 µM | 
16 | Cc1cc(N(C)c2ccccc2Cl)nc(N[C@H]2CCc3c(N)cccc3C2)n1 [Cmpd 423, 2-N-[(2S)-5-amino-1,2,3,4-tetrahydronaphthalen-2-yl]-4-N-(2-chlorophenyl)-4-N,6-dimethylpyrimidine-2,4-diamine] |  | IC50 [1]: 10 to 100 µM
17 | CC(C)CC(=O)n1nc(-c2ccncc2)nc1NCc1ccc(F)cc1 [Cmpd 316] | > 100 µM | 
18 | CCC(=O)n1nc(-c2cccnc2)nc1NCc1cccs1 [Cmpd 340] | 10 to 100 µM | 
19 | O=C(Cc1ccccc1)n1nc(-c2ccncc2)nc1NCc1ccccc1 [Cmpd 352] | > 100 µM | 
20 | COc1ccccc1C(=O)n1nc(-c2ccccc2)nc1NCc1nccs1 [Cmpd 333] | > 100 µM | 
21 | CC(C)(CO)C(=O)n1nc(C2CCNCC2)c(F)c1NCc1ccc(Cl)s1 [Cmpd 274] |  | IC50 (Table B): 1 to 10 µM
22 | CC(C)(C)OC(=O)N1CCC(c2cc(NCc3ccc(Cl)s3)n(C(=O)c3ccsc3)n2)CC1 [Cmpd 298] |  | IC50 (Table B): > 100 µM
23 | Cc1cc(N(C)c2ccccc2)nc(N[C@H]2CCc3c(N)cccc3C2)n1 [Cmpd 422, 2-N-[(2S)-5-amino-1,2,3,4-tetrahydronaphthalen-2-yl]-4-N,6-dimethyl-4-N-phenylpyrimidine-2,4-diamine] |  | IC50 [1]: > 100 µM
24 | O=C(Cc1ccccc1)n1nc(-c2ccco2)nc1NCc1ccccc1 [Cmpd 343] | > 100 µM | 
25 | O=C(NCc1ccc2[nH]cc(Cl)c2c1)[C@@H]1CC(=O)N(Cc2ccc(Cl)cc2)C1 [Cmpd 414, (3R)-N-[(3-chloro-1H-indol-5-yl)methyl]-1-[(4-chlorophenyl)methyl]-5-oxopyrrolidine-3-carboxamide] |  | IC50 [1]: > 100 µM
26 | CC(C)(C)C(=O)n1nc(-c2ccco2)cc1NCc1ccc(Cl)s1 [Cmpd 270] |  | IC50 (Table B): > 100 µM
27 | O=C(c1ccoc1)n1nc(-c2ccccn2)nc1NCc1ccccc1 [Cmpd 401] | > 100 µM | 
28 | O=C(c1ccsc1)n1nc(-c2cccnc2)nc1NCc1ccc(F)cc1 [Cmpd 377] | 0.1 to 1 µM | 
29 | O=C(c1c(F)cccc1F)n1nc(-c2ccccn2)nc1NCc1ccccc1 [Cmpd 394] | > 100 µM | 
30 | Cc1cc(N(C)c2ccccc2F)nc(N[C@@H]2CCc3c(N)cccc3C2)n1 [Cmpd 419, 2-N-[(2R)-5-amino-1,2,3,4-tetrahydronaphthalen-2-yl]-4-N-(2-fluorophenyl)-4-N,6-dimethylpyrimidine-2,4-diamine] |  | IC50 [1]: > 100 µM
31 | O=C(c1ccsc1)n1nc(-c2ccncc2)nc1NCc1ccc(F)cc1 [Cmpd 11] | 1 to 10 µM | 
32 | COc1ccccc1C(=O)n1nc(-c2ccccn2)cc1NCc1ccco1 [Cmpd 283] |  | IC50 (Table B): > 100 µM
